ChEMBL document CHEMBL1201862, “PubChem BioAssay data set” (2004)
Active and inactive are the calls of the source.

How the values were obtained:
[1] = molecular target: T1, Sentrin-specific protease 6 (Homo sapiens, UniProt Q9GZR1); assay type: functional;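 also: Luminescence-based dose-response confirmatory assay of SENP6 inhibition, following up an ultra-high-throughput screen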
T1 sequence (Q9GZR1 whole entry): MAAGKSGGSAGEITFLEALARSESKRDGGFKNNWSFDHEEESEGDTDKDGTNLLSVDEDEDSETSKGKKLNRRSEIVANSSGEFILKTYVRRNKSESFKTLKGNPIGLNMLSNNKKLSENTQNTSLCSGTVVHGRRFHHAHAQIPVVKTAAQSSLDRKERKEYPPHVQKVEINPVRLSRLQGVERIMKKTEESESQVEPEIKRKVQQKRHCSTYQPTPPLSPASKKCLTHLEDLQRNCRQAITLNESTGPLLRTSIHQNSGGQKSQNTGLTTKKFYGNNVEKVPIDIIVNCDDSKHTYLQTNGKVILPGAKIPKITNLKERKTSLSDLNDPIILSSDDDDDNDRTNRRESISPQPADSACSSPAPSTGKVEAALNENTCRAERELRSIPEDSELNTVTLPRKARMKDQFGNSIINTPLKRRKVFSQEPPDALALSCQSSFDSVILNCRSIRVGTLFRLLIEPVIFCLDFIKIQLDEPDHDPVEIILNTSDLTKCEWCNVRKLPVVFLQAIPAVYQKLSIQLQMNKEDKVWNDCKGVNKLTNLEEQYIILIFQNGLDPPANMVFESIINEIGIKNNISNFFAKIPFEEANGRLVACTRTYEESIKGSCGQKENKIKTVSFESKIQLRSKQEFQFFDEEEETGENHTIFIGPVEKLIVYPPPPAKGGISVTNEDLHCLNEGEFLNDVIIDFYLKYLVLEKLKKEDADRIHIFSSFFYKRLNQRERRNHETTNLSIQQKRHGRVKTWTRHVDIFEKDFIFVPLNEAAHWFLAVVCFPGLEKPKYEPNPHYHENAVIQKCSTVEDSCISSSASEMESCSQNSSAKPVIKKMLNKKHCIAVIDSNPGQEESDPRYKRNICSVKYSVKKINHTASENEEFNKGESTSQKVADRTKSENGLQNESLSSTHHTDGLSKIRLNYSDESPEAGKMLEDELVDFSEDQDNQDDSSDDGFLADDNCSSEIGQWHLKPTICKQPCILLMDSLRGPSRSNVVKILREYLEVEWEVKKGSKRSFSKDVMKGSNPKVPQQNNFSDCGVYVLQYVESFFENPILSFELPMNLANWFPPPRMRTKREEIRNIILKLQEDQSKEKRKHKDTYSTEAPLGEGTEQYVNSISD

[2] = molecular target: T2, Sentrin-specific protease 8 (Homo sapiens, UniProt Q96LD8); assay type: functional;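 also: luminescence read-out of SENP8 inhibition, dose-response confirmation following an ultra-high-throughput screen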
T2 sequence (Q96LD8 whole entry): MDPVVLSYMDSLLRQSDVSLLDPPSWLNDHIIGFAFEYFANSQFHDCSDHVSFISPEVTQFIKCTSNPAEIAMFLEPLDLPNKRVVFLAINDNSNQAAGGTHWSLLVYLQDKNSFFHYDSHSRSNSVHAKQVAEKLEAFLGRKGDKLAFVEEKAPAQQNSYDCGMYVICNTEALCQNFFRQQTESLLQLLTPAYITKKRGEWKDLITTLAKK

Caspase-3 = molecular target: T3, Caspase-3 (Homo sapiens, UniProt P42574); assay type: functional;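 also: Dose-response selectivity test against caspase-3 for candidate inhibitors of sentrin-specific proteases (SENPs)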
T3 sequence (P42574 whole entry): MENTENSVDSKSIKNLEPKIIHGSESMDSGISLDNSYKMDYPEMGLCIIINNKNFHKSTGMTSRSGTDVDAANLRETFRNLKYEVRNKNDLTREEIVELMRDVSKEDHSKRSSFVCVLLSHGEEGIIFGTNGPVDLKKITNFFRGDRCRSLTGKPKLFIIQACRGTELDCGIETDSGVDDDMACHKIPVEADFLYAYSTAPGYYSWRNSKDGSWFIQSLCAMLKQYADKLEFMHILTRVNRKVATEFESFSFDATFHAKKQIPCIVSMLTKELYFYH

[3] = molecular target: T4, Sentrin-specific protease 7 (Homo sapiens, UniProt Q9BQF6); assay type: functional;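 also: Luminescence-based dose-response confirmation of ultra-high-throughput screening hits, measuring inhibition of SENP7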
T4 sequence (Q9BQF6 whole entry): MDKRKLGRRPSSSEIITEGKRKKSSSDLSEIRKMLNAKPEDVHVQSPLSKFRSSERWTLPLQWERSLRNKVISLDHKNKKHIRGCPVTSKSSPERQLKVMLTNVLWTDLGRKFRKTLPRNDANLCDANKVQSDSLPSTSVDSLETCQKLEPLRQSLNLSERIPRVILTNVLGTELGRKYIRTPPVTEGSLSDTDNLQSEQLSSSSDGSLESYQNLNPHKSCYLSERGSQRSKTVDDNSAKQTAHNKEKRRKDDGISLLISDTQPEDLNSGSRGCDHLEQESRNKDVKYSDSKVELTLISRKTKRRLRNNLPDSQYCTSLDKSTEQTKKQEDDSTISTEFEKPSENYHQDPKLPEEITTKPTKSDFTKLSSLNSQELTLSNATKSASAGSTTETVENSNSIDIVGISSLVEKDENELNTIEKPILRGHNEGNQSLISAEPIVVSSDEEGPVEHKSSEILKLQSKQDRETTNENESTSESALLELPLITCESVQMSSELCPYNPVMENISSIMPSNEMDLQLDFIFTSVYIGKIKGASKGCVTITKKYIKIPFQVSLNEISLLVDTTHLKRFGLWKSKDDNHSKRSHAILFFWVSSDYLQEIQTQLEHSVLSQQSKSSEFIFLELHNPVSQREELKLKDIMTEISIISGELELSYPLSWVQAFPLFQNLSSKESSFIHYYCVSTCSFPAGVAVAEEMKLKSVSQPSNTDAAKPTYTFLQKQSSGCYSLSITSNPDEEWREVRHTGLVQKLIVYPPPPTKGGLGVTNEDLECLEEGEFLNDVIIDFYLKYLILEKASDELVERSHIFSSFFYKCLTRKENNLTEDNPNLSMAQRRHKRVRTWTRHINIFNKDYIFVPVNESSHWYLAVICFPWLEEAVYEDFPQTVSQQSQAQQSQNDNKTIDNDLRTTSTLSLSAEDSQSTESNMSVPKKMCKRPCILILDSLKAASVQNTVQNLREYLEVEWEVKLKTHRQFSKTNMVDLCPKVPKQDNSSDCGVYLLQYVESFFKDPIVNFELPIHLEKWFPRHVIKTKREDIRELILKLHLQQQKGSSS

HEK293 = test: EBV LMP1 TES2 canonical NF-kB signalling blockers – cell-based, HEK293, luciferase, cherry-pick, dose response (AID 588343); assay type: functional; conditions: Homo sapiens
[4] = Luminescence Cell-Based Dose Response HTS to Identify Inhibitors of 5'UTR Stem-Loop Driven Prion Protein mRNA Translation in H4 Neuroglioblastoma Cells. [Related pubchem assays: 1827 (Project Summary), 1813 (Primary HTS)]; assay type: functional
Streptococcus = test: GAS UMAA2166 growth inhibition – luminescence, BacTiterGlo, counter-screen for streptokinase expression inhibitor project, dose response (AID 1915); assay type: functional, organism-based;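 also: potency for reduction of bacterial viability or growth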
[5] = molecular target: ATP-dependent molecular chaperone HSP82 (Candida albicans (strain WO-1) (Yeast), UniProt C4YTQ8); test: steroid-induced GRE reporter decrease in yeast – S. cerevisiae, luminescence, Hsp90 inhibitor project, dose response (AID 2400); assay type: functional, cell-based;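 also: beta-galactosidase luminescence from glucocorticoid response element reporter as proxy for Hsp90 function; inhibitor potency where signal loss means Hsp90 inhibition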
Chain of ATP-dependent molecular chaperone HSP82 (C4YTQ8 whole entry): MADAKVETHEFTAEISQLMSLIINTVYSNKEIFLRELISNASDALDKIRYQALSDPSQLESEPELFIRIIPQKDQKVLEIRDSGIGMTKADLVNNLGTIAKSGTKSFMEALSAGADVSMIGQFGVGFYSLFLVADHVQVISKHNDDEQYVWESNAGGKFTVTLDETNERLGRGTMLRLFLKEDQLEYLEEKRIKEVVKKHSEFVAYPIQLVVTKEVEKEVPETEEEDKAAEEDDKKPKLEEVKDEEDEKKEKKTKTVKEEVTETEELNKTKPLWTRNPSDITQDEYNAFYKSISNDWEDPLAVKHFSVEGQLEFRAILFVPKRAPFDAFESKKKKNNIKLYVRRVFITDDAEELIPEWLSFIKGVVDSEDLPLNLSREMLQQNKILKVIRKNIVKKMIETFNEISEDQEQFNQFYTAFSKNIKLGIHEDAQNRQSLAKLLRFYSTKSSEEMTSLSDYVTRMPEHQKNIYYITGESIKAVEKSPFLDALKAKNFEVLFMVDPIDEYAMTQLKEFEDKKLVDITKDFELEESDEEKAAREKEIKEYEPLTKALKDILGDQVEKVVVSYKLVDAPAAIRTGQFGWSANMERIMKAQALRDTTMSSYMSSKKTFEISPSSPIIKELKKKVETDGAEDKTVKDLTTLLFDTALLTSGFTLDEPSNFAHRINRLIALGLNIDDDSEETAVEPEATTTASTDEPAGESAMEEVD

[6] = system: Streptococcus sp. 'group A'; test: Streptococcus pyogenes SK(-)GAS viability under kanamycin – luminescence, BacTiterGlo, confirmation, counter-screen for streptokinase expression inhibitor project, dose response (AID 1900); assay type: functional, organism-based
Streptokinase A = molecular target: T5, Streptokinase A (Streptococcus pyogenes serotype M1, UniProt P10520); test: viability-normalized secreted streptokinase activity reduction – plasminogen activation absorbance, OD405, dose response (AID 1914); assay type: functional, Streptococcus pyogenes M1 GAS;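 also: secreted streptokinase activity via plasminogen activation per viability signal from cell pellet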
T5 sequence (P10520 whole entry): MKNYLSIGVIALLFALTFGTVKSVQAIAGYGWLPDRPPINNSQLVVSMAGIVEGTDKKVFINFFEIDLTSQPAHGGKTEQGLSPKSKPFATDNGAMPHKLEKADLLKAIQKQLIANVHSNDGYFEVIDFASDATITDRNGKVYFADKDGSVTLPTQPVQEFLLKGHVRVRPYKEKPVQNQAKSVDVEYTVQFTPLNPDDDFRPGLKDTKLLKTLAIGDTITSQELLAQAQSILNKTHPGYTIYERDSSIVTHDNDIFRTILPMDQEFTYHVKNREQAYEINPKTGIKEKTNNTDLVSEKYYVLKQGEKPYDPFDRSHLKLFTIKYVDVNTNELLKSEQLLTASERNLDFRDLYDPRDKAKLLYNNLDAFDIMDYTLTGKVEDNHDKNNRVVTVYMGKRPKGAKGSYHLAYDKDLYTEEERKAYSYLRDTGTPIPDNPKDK

cells = assay type: functional, cell-based
[7] = luciferase reporter signal suppression in cells – H4 neuroglioma cells, luminescence, dose response (AID 1990); assay type: functional, cell-based
BJ = test: growth inhibition of engineered Ras-driven BJ cells – cell-based, alamar blue fluorescence, cherrypicked samples, dose response (AID 2631); assay type: functional; conditions: Homo sapiens;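 also: confirmatory dose-response assay in RAS-dependent BJ fibroblasts engineered with TERT, LT and ST, with cytotoxicity read by fluorescence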
[8] = alpha-synuclein stem-loop luciferase translation blockers – H4 neuroglioma cells, luminescence, confirmation (AID 1988); assay type: functional, cell-based
[9] = alpha-synuclein stem-loop translation blockers – luminescence, H4 neuroglioblastoma cells, dose confirmation, confirmation (AID 2454); assay type: functional, cell-based;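 also: H4 neuroglioblastoma cells carrying an alpha-synuclein 5'UTR luciferase reporter; potency for inhibition of the luciferase signal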
[10] = molecular target: T6, Serine/threonine-protein phosphatase (Candida dubliniensis (strain CD36 / CBS 7987 / NCPF 3949 / NRRLY-17841) (Yeast), UniProt B9W6M3); test: blockers of CaCl2-induced CDRE-lacZ signaling – S. cerevisiae, luminescence, secondary, dose response (AID 2388); assay type: functional, cell-based;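 also: yeast reporter cells carrying a calcineurin-responsive lacZ construct stimulated with calcium chloride; luminescent beta-galactosidase reporter signal in whole cells rather than isolated phosphatase activity; potency for inhibition where a drop in reporter signal means calcineurin blockade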
T6 sequence (B9W6M3 whole entry): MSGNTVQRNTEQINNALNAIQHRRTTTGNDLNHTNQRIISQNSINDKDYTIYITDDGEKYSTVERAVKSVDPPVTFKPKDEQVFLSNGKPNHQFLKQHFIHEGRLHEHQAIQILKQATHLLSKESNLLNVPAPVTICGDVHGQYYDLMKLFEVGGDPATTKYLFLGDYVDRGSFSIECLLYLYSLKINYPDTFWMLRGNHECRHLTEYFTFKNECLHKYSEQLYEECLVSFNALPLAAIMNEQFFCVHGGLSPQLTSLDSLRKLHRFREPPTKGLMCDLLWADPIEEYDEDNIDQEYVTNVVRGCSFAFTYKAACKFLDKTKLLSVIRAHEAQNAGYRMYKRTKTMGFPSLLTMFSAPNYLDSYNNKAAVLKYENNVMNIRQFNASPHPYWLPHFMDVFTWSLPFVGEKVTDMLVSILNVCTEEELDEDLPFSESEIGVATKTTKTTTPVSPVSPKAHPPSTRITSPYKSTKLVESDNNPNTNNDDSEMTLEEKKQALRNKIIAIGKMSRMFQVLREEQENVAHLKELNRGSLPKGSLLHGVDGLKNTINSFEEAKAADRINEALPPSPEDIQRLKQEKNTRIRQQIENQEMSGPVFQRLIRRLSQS

[11] = luciferase reporter signal reduction – luminescence, H4-C neuroglioblastoma cells, dose response (AID 2458); assay type: functional, cell-based;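 also: H4 neuroglioblastoma cells stably carrying a luciferase reporter gene fusion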
[12] = fluconazole-exposed Candida albicans growth modulators – fluorescence, retest, confirmation (AID 2467); assay type: functional, cell-based
[13] = molecular target: Heat shock protein HSP 90-alpha (Homo sapiens, UniProt P07900); assay type: functional, organism-based
Nonstructural protein 1 = Nonstructural protein 1 (Influenza A virus, UniProt Q194T2); assay type: functional, Influenza A virus (A/California/07/2009(H1N1))
Chain of Nonstructural protein 1 (Q194T2 whole entry): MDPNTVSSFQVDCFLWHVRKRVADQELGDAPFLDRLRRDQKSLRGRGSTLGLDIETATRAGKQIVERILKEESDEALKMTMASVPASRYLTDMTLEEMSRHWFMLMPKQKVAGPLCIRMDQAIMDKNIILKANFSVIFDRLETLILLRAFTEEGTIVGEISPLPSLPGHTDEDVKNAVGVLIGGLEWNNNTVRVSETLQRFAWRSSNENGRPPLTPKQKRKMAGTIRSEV

[14] = NIH-3T3 fibroblast cytotoxicity, dose response, cytotoxicity control, cell-based, fluorescence, Alamar Blue, secondary assay (AID 2327); assay type: functional;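 also: NIH-3T3 mouse fibroblasts cultured with fluconazole at 8 µg/mL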
[15] = molecular target: Induced myeloid leukemia cell differentiation protein Mcl-1 (Homo sapiens, UniProt Q07820); assay type: functional
Chain of Induced myeloid leukemia cell differentiation protein Mcl-1 (Q07820 whole entry): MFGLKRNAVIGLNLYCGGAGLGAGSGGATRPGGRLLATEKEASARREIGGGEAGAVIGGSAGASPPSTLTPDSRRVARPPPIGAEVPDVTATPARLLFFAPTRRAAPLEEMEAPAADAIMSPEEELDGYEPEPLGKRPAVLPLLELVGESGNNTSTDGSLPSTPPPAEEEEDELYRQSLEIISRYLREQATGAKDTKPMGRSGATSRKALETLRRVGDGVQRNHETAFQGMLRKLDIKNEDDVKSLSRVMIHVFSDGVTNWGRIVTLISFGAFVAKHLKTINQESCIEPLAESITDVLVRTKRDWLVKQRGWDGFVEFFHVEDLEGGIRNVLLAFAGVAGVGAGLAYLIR

HeLa = test: ATP-based viability loss in HeLa cells – cell-based, CellTiter-Glo luminescence, cherry-pick samples, cytotoxicity control for MITF activator project, dose response (AID 540259); assay type: functional; conditions: Homo sapiens
Vero [16] = test: cells; assay type: functional; conditions: Chlorocebus sabaeus
Vero [17] = test: cells; assay type: functional, cell-based; conditions: Chlorocebus sabaeus

CCOC(=O)/C(=N\Nc1ncnc2ccccc12)c1ccc(OC)cc1
IC50 [1]: 5.23 µM (active) | IC50 [2]: 14.2 µM (active) | IC50 (Caspase-3): 16.9 µM (active) | IC50 [3]: 3.39 µM (active)

COc1ccc(-c2csc3ncnc(NCCO)c23)cc1
AC50 (HEK293): 13.9 µM (active)

CC1CCCN(C(=O)c2ccc(-c3ccccc3Cl)o2)C1 (stereo not drawn)
IC50 [1]: 27.6 µM (active) | IC50 [2]: 31.4 µM (active) | IC50 (Caspase-3): 34.7 µM (active) | IC50 [3]: 15.2 µM (active)

O=C(N/N=C/c1cc2c3c(c1O)CCCN3CCC2)c1ccccc1O
AC50 (HEK293): 5.6 µM (active) | EC50 [4]: 0.102 µM (active) | EC50 (Streptococcus): 12 µM (active) | EC50 [5]: 18.1 µM (active) | EC50 [6]: 8.16 µM (active) | EC50 (Streptokinase A): > 150 µM (not active) | EC50 (cells): 0.687 µM (active) | EC50 [7]: 2.89 µM (active) | EC50 (BJ): 22.4 µM (active) | EC50 [8]: < 0.1 µM (active) | EC50 [9]: 0.798 µM (active) | EC50 [10]: 18.2 µM (active) | EC50 [11]: 0.558 µM (active) | EC50 [12]: 0.429 µM (active) | AC50 [13]: 2.14 µM (active) | IC50 (Nonstructural protein 1): 3.22 µM (active) | EC50 [14]: 23.7 µM (active)

O=C(O)c1ccccc1N/N=C/c1cc(Br)cc(Br)c1O
IC50 [15]: 8.04 µM (active) | EC50 (Streptococcus): 60.6 µM (active) | EC50 [6]: 4.5 µM (active) | EC50 (Streptokinase A): 32.4 µM (active) | AC50 (HeLa): 57.4 µM (active) | CC50 (Vero [16]): > 25 µM (active) | IC50 (Vero [17]): 18.9 µM (active)

CC(C)CC(=NNC(=O)c1ccncc1)c1cc(Cl)ccc1O
AC50 (HEK293): 4.28 µM (active)

COn1c(-c2ccccc2)nc2ccc(Cl)cc21
IC50 [1]: 30 µM (active) | IC50 [2]: 34.9 µM (active) | IC50 (Caspase-3): 20.1 µM (active) | IC50 [3]: 13.1 µM (active)
